This is an account of results in patent US10435405B2, “Pyrazolopyridine compounds and uses thereof” (Incyte Corporation, priority 2016, dated 2019).

Chain of HPK1 (Q92918 1-346): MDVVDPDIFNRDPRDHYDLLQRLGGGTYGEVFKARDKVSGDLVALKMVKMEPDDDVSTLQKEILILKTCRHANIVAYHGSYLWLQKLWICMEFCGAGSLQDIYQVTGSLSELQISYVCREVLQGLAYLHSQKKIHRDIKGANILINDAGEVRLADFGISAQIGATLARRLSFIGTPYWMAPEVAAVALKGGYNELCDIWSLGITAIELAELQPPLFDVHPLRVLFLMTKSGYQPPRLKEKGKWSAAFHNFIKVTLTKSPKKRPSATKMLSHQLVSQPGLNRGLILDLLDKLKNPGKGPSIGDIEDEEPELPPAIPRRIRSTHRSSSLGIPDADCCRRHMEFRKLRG

The assay deals with HPK1 (Homo sapiens (Human), UniProt Q92918). In words: HPK1 Kinase Binding Assay. In short, it runs like this:
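This is a LanthaScreen tracer-binding format: a tracer 222/Eu-anti-GST antibody mix (18 nM and 4 nM solution) is added to active HPK1 (4 nM solution) with 3-fold, 11-point compound dilutions. Incubation is 1 h at 25 °C in HEPES pH 7.5 buffer before reading, and Ki is determined.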
`COc1cccc(F)c1-c1cc2c(-c3cnc(C)s3)n[nH]c2cn1` [Example 36, 5-(5-(2-Fluoro-6-methoxyphenyl)-1H-pyrazolo[3,4-c]pyridin-3-yl)-2-methylthiazole] returned a Ki of at most 100 nM.
Take `CN1CCN(c2ccc(-c3n[nH]c4cnc(-c5c(F)cccc5F)cc34)cc2)CC1` [Example 44, 5-(2,6-Difluorophenyl)-3-(4-(4-methylpiperazin-1-yl)phenyl)-1H-pyrazolo[3,4-c]pyridine]: the Ki is at most 100 nM.
The molecule `CNC(=O)c1ccc(-c2n[nH]c3cnc(-c4c(F)cc5c(c4F)CCCC5NC)cc23)cc1` (stereo not drawn) [Example 201, 4-(5-(1,3-Difluoro-5-(methylamino)-5,6,7,8-tetrahydronaphthalen-2-yl)-1H-pyrazolo[3,4-c]pyridin-3-yl)-N-methylbenzamide] registered an inhibitory constant (Ki) of at most 100 nM.
To `CCNCc1cc(F)c(-c2cc3c(NC(=O)c4ccc(N5CCN(C)CC5)cc4)n[nH]c3cn2)c(C(F)(F)F)c1` [Example 154, N-(5-(4-((Ethylamino)methyl)-2-fluoro-6-(trifluoromethyl)phenyl)-1H-pyrazolo[3,4-c]pyridin-3-yl)-4-(4-methylpiperazin-1-yl)benzamide] belongs at most 100 nM; to `CN1CCN(c2ccc(-c3n[nH]c4cnc(-c5c(F)ccc6c5CCCC6N)cc34)cc2)CC1` (stereo not drawn) [Example 241, 6-Fluoro-5-(3-(4-(4-methylpiperazin-1-yl)phenyl)-1H-pyrazolo[3,4-c]pyridin-5-yl)-1,2,3,4-tetrahydronaphthalen-1-amine], at most 100 nM.
To `Cc1cc(CNC(C)C)cc(F)c1-c1cc2c(-c3cnn(C)c3)n[nH]c2cn1` [Example 178, N-(3-Fluoro-5-methyl-4-(3-(1-methyl-1H-pyrazol-4-yl)-1H-pyrazolo[3,4-c]pyridin-5-yl)benzyl)propan-2-amine] belongs at most 100 nM; to `Cn1cc(C(=O)Nc2cc(F)c(-c3cc4c(-c5cnn(C)c5)n[nH]c4cn3)c(F)c2)cn1` [Example 65, N-(3,5-Difluoro-4-(3-(1-methyl-1H-pyrazol-4-yl)-1H-pyrazolo[3,4-c]pyridin-5-yl)phenyl)-1-methyl-1H-pyrazole-4-carboxamide], at most 100 nM.
In the case of `CC(C)NCc1cc(F)c(-c2cc3c(NC(=O)c4ccc(N5CCN(C)CC5)cc4)n[nH]c3cn2)c(F)c1` [Example 140, N-(5-(2,6-Difluoro-4-((isopropylamino)methyl)phenyl)-1H-pyrazolo[3,4-c]pyridin-3-yl)-4-(4-methylpiperazin-1-yl)benzamide] it was at most 100 nM; in that of `CN1CCN(c2ccc(-c3n[nH]c4cnc(-c5c(F)cccc5C(F)(F)F)cc34)cc2)CC1` [Example 53, 5-(2-Fluoro-6-(trifluoromethyl)phenyl)-3-(4-(4-methylpiperazin-1-yl)phenyl)-1H-pyrazolo[3,4-c]pyridine], at most 100 nM.
As for `CNCc1cc(F)c(-c2cc3c(-c4cncc(N5CCN(C)CC5)c4)n[nH]c3cn2)c(F)c1` [Example 219, 1-(3,5-Difluoro-4-(3-(5-(4-methylpiperazin-1-yl)pyridin-3-yl)-1H-pyrazolo[3,4-c]pyridin-5-yl)phenyl)-N-methylmethanamine], the Ki is at most 100 nM.
In the case of `CC(C)NCc1ccc(F)c(-c2cc3c(-c4cnn(C)c4)n[nH]c3cn2)c1F` [Example 128, N-(2,4-Difluoro-3-(3-(1-methyl-1H-pyrazol-4-yl)-1H-pyrazolo[3,4-c]pyridin-5-yl)benzyl)propan-2-amine] it was at most 100 nM; in that of `CNCc1cc(F)c(-c2cc3c(-c4ccc(N5CCC(O)CC5)nc4)n[nH]c3cn2)c(F)c1` [Example 166, 1-(5-(5-(2,6-Difluoro-4-((methylamino)methyl)phenyl)-1H-pyrazolo[3,4-c]pyridin-3-yl)pyridin-2-yl)piperidin-4-ol], at most 100 nM; in that of `CNc1ccc(F)c(-c2cc3c(-c4cnn(C)c4)n[nH]c3cn2)c1F` [Example 61, 2,4-Difluoro-N-methyl-3-(3-(1-methyl-1H-pyrazol-4-yl)-1H-pyrazolo[3,4-c]pyridin-5-yl)aniline], at most 100 nM.
In the case of `CN(C)C(=O)Oc1cc(F)c(-c2cc3c(-c4cnn(C)c4)n[nH]c3cn2)c(F)c1` [Example 109, 3,5-Difluoro-4-(3-(1-methyl-1H-pyrazol-4-yl)-1H-pyrazolo[3,4-c]pyridin-5-yl)phenyl dimethylcarbamate] it was at most 100 nM; in that of `COc1cccc(F)c1-c1cc2c(NC(=O)c3cccc(N4CCOCC4)c3)n[nH]c2cn1` [Example 16, N-(5-(2-Fluoro-6-methoxyphenyl)-1H-pyrazolo[3,4-c]pyridin-3-yl)-3-morpholinobenzamide], at most 100 nM; in that of `Cc1cc(CNCC(C)(C)O)cc(F)c1-c1cc2c(-c3cnn(C)c3)n[nH]c2cn1` [Example 184, 1-(3-Fluoro-5-methyl-4-(3-(1-methyl-1H-pyrazol-4-yl)-1H-pyrazolo[3,4-c]pyridin-5-yl)benzylamino)-2-methylpropan-2-ol], at most 100 nM.
Take `COc1cccc(F)c1-c1cc2c(NC(=O)c3ccc(F)c(C)c3)n[nH]c2cn1` [Example 10, 4-Fluoro-N-(5-(2-fluoro-6-methoxyphenyl)-1H-pyrazolo[3,4-c]pyridin-3-yl)-3-methylbenzamide]: the Ki was at most 100 nM.
In the case of `CCOc1cccc(F)c1-c1cc2c(-c3ccc(N4CCN(C)CC4)cc3)n[nH]c2cn1` [Example 51, 5-(2-Ethoxy-6-fluorophenyl)-3-(4-(4-methylpiperazin-1-yl)phenyl)-1H-pyrazolo[3,4-c]pyridine] it was at most 100 nM; in that of `Cc1cc(C2CCCN2)cc(F)c1-c1cc2c(-c3cnn(C)c3)n[nH]c2cn1` (single isomer, unassigned) [Example 171, 5-(2-Fluoro-6-methyl-4-(pyrrolidin-2-yl)phenyl)-3-(1-methyl-1H-pyrazol-4-yl)-1H-pyrazolo[3,4-c]pyridine], at most 100 nM.
In the case of `COC1CN(Cc2cc(C)c(-c3cc4c(-c5cnn(C)c5)n[nH]c4cn3)c(F)c2)C1` [Example 185, 5-(2-Fluoro-4-((3-methoxyazetidin-1-yl)methyl)-6-methylphenyl)-3-(1-methyl-1H-pyrazol-4-yl)-1H-pyrazolo[3,4-c]pyridine] it was at most 100 nM.
Molecule `COCCNC(=O)Nc1cc(F)c(-c2cc3c(-c4cnn(C)c4)n[nH]c3cn2)c(F)c1` [Example 71, 1-(3,5-Difluoro-4-(3-(1-methyl-1H-pyrazol-4-yl)-1H-pyrazolo[3,4-c]pyridin-5-yl)phenyl)-3-(2-methoxyethyl)urea] registered an inhibitory constant (Ki) of at most 100 nM.
To `CNC1CCc2cc(F)c(-c3cc4c(-c5cnn(C)c5)n[nH]c4cn3)c(F)c2C1` (stereo not drawn) [Example 200, 6,8-Difluoro-N-methyl-7-(3-(1-methyl-1H-pyrazol-4-yl)-1H-pyrazolo[3,4-c]pyridin-5-yl)-1,2,3,4-tetrahydronaphthalen-2-amine] belongs at most 100 nM.
To `CNCc1ccc(-c2cc3c(-c4cnn(C)c4)n[nH]c3cn2)c(C)c1` [Example 111, N-Methyl-1-(3-methyl-4-(3-(1-methyl-1H-pyrazol-4-yl)-1H-pyrazolo[3,4-c]pyridin-5-yl)phenyl)methanamine] belongs at most 100 nM; to `COc1cccc(F)c1-c1cc2c(NC(=O)c3cccc(N4CCN(CC(F)(F)F)C(=O)C4)c3)n[nH]c2cn1` [Example 21, N-(5-(2-Fluoro-6-methoxyphenyl)-1H-pyrazolo[3,4-c]pyridin-3-yl)-3-(3-oxo-4-(2,2,2-trifluoroethyl)piperazin-1-yl)benzamide], at most 100 nM.

Broadly, the Ki is a dissociation constant, usually derived from enzyme kinetics or from competition with a known ligand.
